The values that follow come from ChEMBL document CHEMBL1129745, “Synthesis and antibacterial activity of new tropone-substituted phenyloxazolidinone antibacterial agents 1. Identification of leads and importance of the tropone substitution pattern” (1996).

Converted amounts (≈) assume the structure as drawn.

Common to all, as to format: functional
Experiment [1] deals with Staphylococcus aureus. The experiment can be described thus: Compound was tested in vitro for antibacterial activity against methicillin-susceptible Staphylococcus aureus UC 9213.
Experiment [2] has as its system Staphylococcus epidermidis. The experiment can be described thus: Compound was tested in vitro for antibacterial activity against methicillin-resistant Staphylococcus epidermidis UC 12084.
The test system of the next experiment is Streptococcus pneumoniae. The experiment can be described thus: Compound was tested in vitro for antibacterial activity against Streptococcus pneumoniae UC 9912.
Experiment [3] deals with Staphylococcus aureus. The experiment can be described thus: Compound was tested in vitro for antibacterial activity against methicillin-resistant Staphylococcus aureus UC 6685.
The subject of another experiment is Escherichia coli. The experiment can be described thus: Compound was tested in vitro for antibacterial activity against Escherichia coli extracts, using cell free prokaryotic transcription coupled translation (T/T) assay. Further details: concentration or dose not given beside the values. The following applies: dose or concentration not given here.
Experiment [4] has as its system Mycobacterium tuberculosis. The experiment is described as follows: Compound was tested in vitro for antibacterial activity against Mycobacterium tuberculosis H37 Rv.
For a further experiment, the system named is Enterococcus faecalis. The experiment can be described thus: Compound was tested in vitro for antibacterial activity against Enterococcus faecalis UC 9217.
The subject of a further experiment is Mus musculus. The experiment is described as follows: Amount of drug required (mg/kg body weight/dose) to cure 50% of infected mice subjected to a lethal systemic infection with Staphylococcus aureus UC 9213.

As a reminder, the MIC is the lowest concentration found to suppress growth. For orientation: inhibition means the change of the read-out against control, counted positive when it falls. Take `CC(=O)NCC1CN(c2ccc(-c3ccc(N4CCOCC4)c(=O)cc3)cc2)C(=O)O1` (stereo not drawn): the MIC with Staphylococcus aureus [1] is 2 mg/L (≈ 4.72 µM); in experiment [2], 0.5 mg/L (≈ 1.18 µM); against Streptococcus pneumoniae it was 0.5 mg/L (≈ 1.18 µM); in the experiment on Staphylococcus aureus [3] it was 2 mg/L (≈ 4.72 µM); in experiment [4], no more than 1 mg/L; against Enterococcus faecalis it was 1 mg/L (≈ 2.36 µM). Further, in the experiment with Escherichia coli, the inhibition turned out to be 81%.

The term ED50 denotes the dose that gives a 50% effect, or the effect in half of the subjects. Take `C#CCNc1cccc(-c2ccc(N3CC(CNC(C)=O)OC3=O)cc2)cc1=O` (stereo not drawn): the MIC against Staphylococcus aureus [1] is 2 mg/L (≈ 5.11 µM); in experiment [2], 1 mg/L (≈ 2.55 µM); against Streptococcus pneumoniae, 0.5 mg/L (≈ 1.28 µM); in the experiment on Staphylococcus aureus [3], 1 mg/L (≈ 2.55 µM); in experiment [4], no more than 1 mg/L; with Enterococcus faecalis, 1 mg/L (≈ 2.55 µM). Also, the inhibition in the experiment with Escherichia coli was 76%. In addition, in the experiment with Mus musculus, the ED50 came to 3.4 mg/kg.

For `C/N=c1\ccc(-c2ccc(N3CC(CNC(C)=O)OC3=O)cc2)ccc1O` (stereo not drawn), the MIC in the experiment with Staphylococcus aureus [1] came out at 2 mg/L (≈ 5.44 µM); in experiment [2], 0.25 mg/L (≈ 0.68 µM); against Streptococcus pneumoniae, 0.25 mg/L (≈ 0.68 µM); against Staphylococcus aureus [3], 1 mg/L (≈ 2.72 µM); with Enterococcus faecalis, 1 mg/L (≈ 2.72 µM). Moreover, in the experiment on Mus musculus, it took a dose of 4.6 mg/kg to reach the 50% effect level (ED50).

With `C=CCOc1ccc(-c2ccc(N3CC(CNC(C)=O)OC3=O)cc2)ccc1=O` (stereo not drawn), the MIC turned out to be 4 mg/L (≈ 10.1 µM) against Staphylococcus aureus [1]; 0.5 mg/L (≈ 1.27 µM) in experiment [2]; 0.25 mg/L (≈ 0.634 µM) in the experiment with Streptococcus pneumoniae; 1 mg/L (≈ 2.54 µM) against Staphylococcus aureus [3]; 2 mg/L (≈ 5.07 µM) in the experiment on Enterococcus faecalis. The compound further had an inhibition in the experiment with Escherichia coli of 74%. The 50% effect level with Mus musculus (ED50) was put at a dose of 7.9 mg/kg.

As for `C=CCNc1ccc(-c2ccc(N3CC(CNC(C)=O)OC3=O)cc2)ccc1=O` (stereo not drawn), the MIC in the experiment with Staphylococcus aureus [1] was found to be 2 mg/L (≈ 5.08 µM); in experiment [2] it was 0.5 mg/L (≈ 1.27 µM); in the experiment on Streptococcus pneumoniae it was 0.5 mg/L (≈ 1.27 µM); against Staphylococcus aureus [3], 1 mg/L (≈ 2.54 µM); against Enterococcus faecalis it was 1 mg/L (≈ 2.54 µM). Besides, in the experiment on Escherichia coli, the inhibition stood at 81%. Further, it took a dose of 12.7 mg/kg to reach the 50% effect level in the experiment on Mus musculus (ED50).

Consider `CC(=O)NC[C@H]1CN(c2ccc(C(C)=O)cc2)C(=O)O1` (racemic) [DUP-721], for which the MIC with Staphylococcus aureus [1] is 8 mg/L (≈ 29 µM); in experiment [2] it was 2 mg/L (≈ 7.24 µM); against Streptococcus pneumoniae, 2 mg/L (≈ 7.24 µM); against Staphylococcus aureus [3], 4 mg/L (≈ 14.5 µM); in experiment [4] it was no more than 16 mg/L; against Enterococcus faecalis it was 8 mg/L (≈ 29 µM). For the same compound, the inhibition in the experiment with Escherichia coli stood at 45%. Besides, the ED50 with Mus musculus turned out to be 9.4 mg/kg.

Consider `COc1ccc(-c2ccc(N3CC(CNC(C)=O)OC3=O)cc2)ccc1=O` (stereo not drawn), for which the MIC against Staphylococcus aureus [1] is 2 mg/L (≈ 5.43 µM); in experiment [2], 0.5 mg/L (≈ 1.36 µM); in the experiment on Streptococcus pneumoniae, 0.25 mg/L (≈ 0.679 µM); in the experiment on Staphylococcus aureus [3], 1 mg/L (≈ 2.71 µM); in experiment [4], no more than 1 mg/L; in the experiment on Enterococcus faecalis it was 1 mg/L (≈ 2.71 µM). The compound further had an inhibition in the experiment on Escherichia coli of 89%.

`COc1cc(-c2ccc(N3CC(CNC(C)=O)OC3=O)cc2)cccc1=O` (stereo not drawn): the minimal inhibitory concentration (MIC) against Staphylococcus aureus [1] was 64 mg/L (≈ 174 µM); in experiment [2], 8 mg/L (≈ 21.7 µM); in the experiment on Streptococcus pneumoniae it was 4 mg/L (≈ 10.9 µM); in the experiment with Staphylococcus aureus [3], 16 mg/L (≈ 43.4 µM); in experiment [4] it was no more than 16 mg/L; in the experiment on Enterococcus faecalis, 32 mg/L (≈ 86.9 µM). Further, the inhibition in the experiment with Escherichia coli amounted to 39%. This compound returned an ED50 in the experiment on Mus musculus greater than 20 mg/kg.

Take `C=CCNc1cccc(-c2ccc(N3CC(CNC(C)=O)OC3=O)cc2)cc1=O` (stereo not drawn): the MIC in the experiment on Staphylococcus aureus [1] was found to be 2 mg/L (≈ 5.08 µM); in experiment [2], 0.5 mg/L (≈ 1.27 µM); against Streptococcus pneumoniae, 0.5 mg/L (≈ 1.27 µM); in the experiment on Staphylococcus aureus [3], 1 mg/L (≈ 2.54 µM); in the experiment with Enterococcus faecalis, 1 mg/L (≈ 2.54 µM). Also, the inhibition in the experiment with Escherichia coli is 80%. In the experiment with Mus musculus, this compound yielded an ED50 of 12.5 mg/kg.

For the compound `CN[C@H](CC(C)C)C(=O)N[C@H]1C(=O)N[C@@H](CC(N)=O)C(=O)N[C@H]2C(=O)N[C@H]3C(=O)N[C@H](C(=O)N[C@H](C(=O)O)c4cc(O)cc(O)c4-c4cc3ccc4O)[C@H](O)c3ccc(c(Cl)c3)Oc3cc2cc(c3O[C@@H]2O[C@H](CO)[C@@H](O)[C@H](O)[C@H]2O[C@H]2C[C@](C)(N)[C@H](O)[C@H](C)O2)Oc2ccc(cc2Cl)[C@H]1O` [VANCOMYCIN], the MIC against Streptococcus pneumoniae came to 0.5 mg/L (≈ 0.345 µM).

With `COc1cccc(-c2ccc(N3CC(CNC(C)=O)OC3=O)cc2)cc1=O` (stereo not drawn), the MIC against Staphylococcus aureus [1] is 4 mg/L (≈ 10.9 µM); in experiment [2], 0.5 mg/L (≈ 1.36 µM); against Streptococcus pneumoniae, 0.5 mg/L (≈ 1.36 µM); against Staphylococcus aureus [3] it was 2 mg/L (≈ 5.43 µM); in experiment [4], no more than 1 mg/L; in the experiment on Enterococcus faecalis it was 2 mg/L (≈ 5.43 µM). Further, the inhibition in the experiment on Escherichia coli came to 90%.
